The conditions of series [1]: cited from earlier work.
A short description of series [2]: Stability of raw API, stability indicating HPLC method. In kind it is physicochemical. The note with it: Sodium Fusidate compared with Fusidic acid, Tables 1 and 2. An excerpt: In both studies the * Initial denotes the results of the samples tested at the time of receipt of the API from the supplier.

Counter-ions that a name gives are not always drawn.

For the compound `Clc1ccccc1C(c1ccccc1)(c1ccccc1)n1ccnc1` [Clotrimazole, 1-(o-Chloro-α,α-diphenylbenzyl)imidazole], the Protein binding entry in series [1] is reported as “about 90%”.

Take `CC(=O)O[C@H]1C[C@@]2(C)[C@@H](C[C@@H](O)[C@H]3[C@@]4(C)CC[C@@H](O)[C@@H](C)[C@@H]4CC[C@@]32C)/C1=C(\CCC=C(C)C)C(=O)O` [Sodium Fusidate, 3μ,11μ,16β-Trihydroxy 29-nor-8μ,9β,13μ,14β-dammara-17(20)[10,21-cis], 24-dien-21-oic acid 16-acetate, sodium salt]: the “stability as an API” value in series [2] was “more stable than Fusidic acid”.

Source of the values: patent publication US20120035144A1 (APEX LABORATORIES PRIVATE LIMITED, priority 2009, published 2012).
